Columns and labels:
Assay type in all cases: cell-based, Chinese hamster
[1] = test system: GS-CHO cells (Cell line A); experiment: Growth (viable cell density) of GS-CHO cells in Medium A spiked with putative inhibitor metabolites; details: single metabolite
Procedure: GS-CHO cells producing a recombinant antibody were inoculated at low viable cell densities (0.1E6 cells/mL) in various conditions in 5 ml volume, 6-well plate cultures. […] The pH of the Medium A, spiked-in with any one of the nine metabolites or any combination of the nine metabolites, was adjusted to 7 before inoculating the cells (on day 0).
For indolelactate, the stock solution (500 mM) was prepared in DMSO. […] All the conditions were run in duplicates or triplicates. Growth of the cells in above described conditions was monitored for 5 or 6 days.

CHO cell line A = experiment: Growth of CHO cell line A in Medium A supplemented with 2-methylbutyrate or isobutyrate; details: at concentrations higher than 1 mM; monitored 5 days
Procedure: CHO cell line A producing a recombinant antibody were inoculated at low cell densities (0.1E6 cells/mL) in various conditions in triplicates in 6-well plate cultures. The working volume for each well on day 0 was 4 mL. […] The 6-well plates were incubated on a shaking platform in 36.5 C and 5% carbon dioxide. Cell growth in all the conditions was monitored for 5 days.

BCAT1 = experiment: Western blot of BCAT1 protein after transient miRNA transfection, CHO parental cell line; details: CHO parental cell line transient transfections, vs untransfected and negative control miRNA
Procedure: miRNA knockdown works by expressing small RNA sequences (approximately 20-25 bases) that are complimentary to a target gene sequence (e.g. BCAT1). The miRNA binds to the messenger RNA (mRNA) of the target gene forming a region of double stranded RNA. […] Micro RNA knockdown of BCAT1 was performed using the BLOCK-iT Inducible Pol II miR RNAi Expression Vector Kit with EmGFP (Invitrogen). Five miRNA oligonucleotide pairs (complementary top and bottom strand of BCAT1) were designed using an online tool called Block-iT RNAi Designer and the DNA oligonucleotides were prepared by Integrated DNA technologies. The oligonucleotide pairs were annealed and ligated into the pcDNA™6.2-GW/EmGFP-miR vector. The vectors (five of them) were sequence confirmed by WyzerBiosciences (Cambridge, Mass.). The five miRNA vectors or a negative control vector named pcDNA™6.2-GW/EmGFP-miR-neg (provided by Invitrogen with the kit) were transfected into CHO parental cell line or CHO cell line B using the GenePulser XCell eletroporator (BioRad) and were left to recover for two days. After two days, cells were either subjected to selection pressure by antibiotic (blasticidin, 10 ug/mL) for generation of stable cell pools (see Example 24), or cell lysates from the transfected cells (or untransfected cells) were prepared in M-PER protein extraction reagent (Thermo Fisher) supplemented with cOmplete, Mini, EDTA-free Protease Inhibitor Cocktail (Roche). The samples were analyzed by western blot using the Novex NuPage system (Thermo Fisher). The system provides polyacrylamide gels, sample loading buffer, sample reductant, gel running buffer, protein mass standard, nitrocellulose membrane, and chemiluminescence detection reagent. The blots were probed with a rabbit polyclonal anti-BCAT1 antibody (AbCam, Cat#ab110761) or a B-Actin antibody (AbCam, Cat#ab8227). The western blots were imaged using a BioRad ChemiDoc system and analyzed for levels of B-actin and BCAT1.

[2] = at concentrations higher than 0.5 mM or 1 mM

CCC(O)C(=O)O (stereo not drawn) [2-hydroxybutyric acid]
effect on growth of cells [1, 2]: Modest inhibition of growth

O=C(O)C(O)Cc1ccc(O)cc1 (stereo not drawn) [3-(4-hydroxyphenyl)lactate]
effect on growth of cells [1, 2]: Modest inhibition of growth

O=CO [Formate]
effect on growth of cells ([1]; at concentrations 2 mM and beyond): negative effect on growth

O=C(O)c1c[nH]c2ccccc12 [Indolecarboxylic acid]
effect on growth of cells ([1]; at concentrations of 1 mM or lower, growth monitored 5 or 6 days): potent negative effect on growth

O=C(O)C(O)Cc1c[nH]c2ccccc12 (stereo not drawn) [Indolelactate]
effect on growth of cells ([1]; at concentrations of 3 mM or below, DMSO controls): little or no effect on growth

O=C(O)[C@H](O)Cc1ccccc1 [L-phenyllactate]
effect on growth of cells ([1]; at 1 mM concentration): mild effect on growth

N[C@@H](CCS)C(=O)O [homocysteine]
effect on growth of cells [1, 2]: Modest inhibition of growth

CC(C)C(=O)O [isobutyrate]
cell growth (CHO cell line A): suppressed

miRNA Seq 2.1a: BCAT1 miRNA sequence TCTGCTGTGAGGACCACTTTG expressed from pcDNA6.2-GW/EmGFP-miR vector (listed as Cricetulus griseus)
BCAT1 protein level (western blot) (BCAT1): lower level of BCAT1 protein

miRNA Seq 3.1a: BCAT1 miRNA sequence AGTGGGCACGATGAATCTGTT expressed from pcDNA6.2-GW/EmGFP-miR vector (listed as Cricetulus griseus)
BCAT1 protein level (western blot) (BCAT1): lower level of BCAT1 protein

miRNA Seq 4.1a: BCAT1 miRNA sequence CACGATGAATCTGTTCCTCTA expressed from pcDNA6.2-GW/EmGFP-miR vector (listed as Cricetulus griseus)
BCAT1 protein level (western blot) (BCAT1): lower level of BCAT1 protein

miRNA Seq 5.1a: BCAT1 miRNA sequence CTTGGGCAAACTGACTGATAT expressed from pcDNA6.2-GW/EmGFP-miR vector (listed as Cricetulus griseus)
BCAT1 protein level (western blot) (BCAT1): lower level of BCAT1 protein

Reference: US11718864B2, “Cells and method of cell culture” (PFIZER INC., priority 2015, dated 2023)
